Measurements taken from PMC7215599, “Synthesis, Antitumor Evaluation, Molecular Modeling and Quantitative Structure–Activity Relationship (QSAR) of Novel 2-[(4-Amino-6-N-substituted-1,3,5-triazin-2-yl)methylthio]-4-chloro-5-methyl-N-(1H-benzo[d]imidazol-2(3H)-ylidene)Benzenesulfonamides” (International Journal of Molecular Sciences, 2020).

Experiments:
[1] = tested on: HCT-116 (colon cancer) cell line; assay: MTT cell viability assay, HCT-116; type: cell-based, human; details: for IC50: MTT, 72 h, 1-100 µM, mean ± SD
Description: (§1) Compounds 6–49 were evaluated in vitro for their effects on the viability of the three human cancer cell lines: HCT-116 (colon cancer), MCF-7 (breast cancer) and HeLa (cervical cancer) as well as the non-cancerous keratinocyte cell line (HaCaT). The concentration required for 50% inhibition of cell viability IC50 was calculated and compared with the reference drug cisplatin, the results are shown in Table 1.
(§2) Cell lines: colon cancer (HCT-116), breast cancer (MCF-7), cervical cancer (HeLa), the human keratinocyte cell line (HaCaT); NT—not tested; IC50 was measured at concentrations 1, 10, 25, 50, and 100 µM. IC50 values are expressed as the mean ± SD of at last three independent experiments.
(§3) All chemicals, if not stated otherwise, were obtained from Sigma–Aldrich (St. Louis, MO, USA). The HCT-116 cell lines was purchased from ATCC (ATCC-No: CCL-247), while the MCF-7, HeLa and HaCaT cell lines were purchased from Cell Lines Services (Eppelheim, Germany). Cells were cultured in Dulbecco’s modified Eagle’s medium (DMEM) supplemented with 10% fetal bovine serum, 2 mM glutamine, 100 units/mL penicillin, and 100 µg/mL streptomycin. Cultures were maintained in a humidified atmosphere with 5% carbon dioxide at 37 °C in an incubator (Heraceus, HeraCell).
(§4) Cell viability was examined using the MTT (3-(4,5-dimethylthiazol-2-yl)-2,5-diphenyltetrazolium bromide) assay. Cells were seeded in 96-well plates at a density of 5 × 10^3 cells/well and treated for 72 h with the tested compounds in the concentration range of 1–100 µM (1, 10, 25, 50 and 100 µM). Then, MTT (0.5 mg/mL) was added to the medium and cells were further incubated for 2 h at 37 °C. In the next stage, cells were lysed with DMSO and the absorbance of the formazan solution was measured at 550 nm with a plate reader (1420 multilabel counter, Victor, Jügesheim, Germany). The experiment was performed in triplicate. Values are expressed as the mean ± SD of at least three independent experiments. Cisplatin was used as a positive control.

[2] = tested on: MCF-7 (breast cancer) cell line; assay: MTT cell viability assay, MCF-7; type: cell-based, human; details: MTT, 72 h, 1-100 µM, mean ± SD
Description: as §1, §2, §3, §4

[3] = tested on: HaCaT (non-cancerous keratinocyte cell line); assay: MTT cell viability assay, HaCaT; type: cell-based; details: Homo sapiens, 72 h, 1-100 µM, mean ± SD, non-cancerous cells
Description: as §1, §2, §3, §4

[4] = tested on: HeLa (cervical cancer) cell line; assay: MTT cell viability assay, HeLa; type: cell-based, human; details: for IC50: 72 h, MTT, 1-100 µM, mean ± SD
Description: as §1, §2, §3, §4

| Compound | IC50 ([1]; Homo sapiens, HCT-116, 72 h) [µM] | IC50 [1] [µM] | IC50 ([2]; Homo sapiens, MCF7, 72 h) [µM] | IC50 [2] [µM] | IC50 ([4]; Homo sapiens, HeLa) [µM] | IC50 [4] [µM] | selectivity ratio HaCaT/HCT-116 ([1]; ratio of IC50 values) | IC50 [3] [µM] | selectivity ratio HaCaT/HeLa ([4]; ratio of IC50 values) |
| --- | --- | --- | --- | --- | --- | --- | --- | --- | --- |
| Cc1cc(S(=O)(=O)N=c2[nH]c3ccc(F)cc3[nH]2)c(SCc2nc(N)nc(Nc3cccc(Cl)c3)n2)cc1Cl [Compound 35, 2-[{4-Amino-6-[(3-chlorophenyl)amino]-1,3,5-triazin-2-yl}methylthio]-4-chloro-N-(5-fluoro-1H-benzo[d]imidazol-2(3H)-ylidene)-5-methylbenzenesulfonamide] | 37 ± 1 | – | 40 ± 1 | – | 39 ± 1 | – | – | 52 ± 2 | – |
| Cc1cc(S(=O)(=O)N=c2[nH]c3ccccc3[nH]2)c(SCc2nc(N)nc(N(C)c3ccc(Cl)cc3)n2)cc1Cl [Compound 17, 2-[{4-Amino-6-[(4-chlorophenyl)(methyl)amino]-1,3,5-triazin-2-yl}methylthio]-N-(1H-benzo[d]imidazol-2(3H)-ylidene)-4-chloro-5-methylbenzenesulfonamide] | 29 ± 1 | – | 31 ± 1 | – | 30 ± 1 | – | – | 43 ± 2 | – |
| Cc1cc(S(=O)(=O)N=c2[nH]c3ccccc3[nH]2)c(SCc2nc(N)nc(Nc3ccc(Cl)cc3)n2)cc1Cl [Compound 13, 2-[{4-Amino-6-[(4-chlorophenyl)amino]-1,3,5-triazin-2-yl}metylthio]-N-(1H-benzo[d]imidazol-2(3H)-ylidene)-4-chloro-5-methylbenzenesulfonamide] | 32 ± 1 | – | 24 ± 1 | – | 35 ± 1 | – | – | 41 ± 2 | – |
| N.N.[Cl][Pt][Cl] [cisplatin, reference compound] | – | 2.2 ± 0.1 | – | 3 ± 0.1 | – | 3.8 ± 0.2 | – | – | – |
| Cc1cc(S(=O)(=O)N=c2[nH]c3ccc(Cl)cc3[nH]2)c(SCc2nc(N)nc(N3CCN(c4ccc(C(F)(F)F)cc4)CC3)n2)cc1Cl [Compound 47, 2-{[4-Amino-6-{4-[4-(trifluoromethyl)phenyl]piperazin-1-yl}-1,3,5-triazin-2-yl]methylthio}-4-chloro-N-(5-chloro-1H-benzo[d]imidazol-2(3H)-ylidene)-5-methylbenzenesulfonamide] | 21 ± 1 | – | 24 ± 1 | – | 22 ± 1 | – | – | 38 ± 1 | – |
| Cc1cc(S(=O)(=O)N=c2[nH]c3ccccc3[nH]2)c(SCc2nc(N)nc(Nc3ccccc3)n2)cc1Cl [Compound 11, 2-{[4-Amino-6-(phenylamino)-1,3,5-triazin-2-yl]methylthio}-N-(1H-benzo[d]imidazol-2(3H)-ylidene)-4-chloro-5-methylbenzenesulfonamide] | 37 ± 2 | – | 41 ± 1 | – | 39 ± 1 | – | – | 58 ± 2 | – |
| Cc1cc(S(=O)(=O)N=c2[nH]c3ccccc3[nH]2)c(SCc2nc(N)nc(N(C)c3ccccc3)n2)cc1Cl [Compound 16, 2-[{4-Amino-6-[methyl(phenyl)amino]-1,3,5-triazin-2-yl}metylthio]-N-(1H-benzo[d]imidazol-2(3H)-ylidene)-4-chloro-5-methylbenzenesulfonamide] | 33 ± 1 | – | 32 ± 1 | – | 33 ± 1 | – | – | 45 ± 2 | – |
| Cc1cc(S(=O)(=O)N=c2[nH]c3ccc(F)cc3[nH]2)c(SCc2nc(N)nc(N(C)c3ccc(Cl)cc3)n2)cc1Cl [Compound 36, 2-[{4-Amino-6-[(4-chlorophenyl)(methyl)amino]-1,3,5-triazin-2-yl}metylthio]-4-chloro-N-(5-fluoro-1H-benzo[d]imidazol-2(3H)-ylidene)-5-methylbenzenesulfonamide] | 18 ± 0.5 | – | 37 ± 2 | – | 29 ± 1 | – | – | 49 ± 1 | – |
| COc1ccccc1N1CCN(c2nc(N)nc(CSc3cc(Cl)c(C)cc3S(=O)(=O)N=c3[nH]c4ccccc4[nH]3)n2)CC1 [Compound 28, 2-[{4-Amino-6-[4-(2-methoxyphenyl)piperazin-1-yl]-1,3,5-triazin-2-yl}metylthio]-N-(1H-benzo[d]imidazol-2(3H)-ylidene)-4-chloro-5-methylbenzenesulfonamide] | 16 ± 1 | – | 24 ± 1 | – | 24 ± 1 | – | – | 35 ± 1 | – |

Now from value to compound, other results behind:

| IC50 ([1]; Homo sapiens, HCT-116, 72 h) [µM] | IC50 [1] [µM] | IC50 ([2]; Homo sapiens, MCF7, 72 h) [µM] | IC50 [2] [µM] | IC50 ([4]; Homo sapiens, HeLa) [µM] | IC50 [4] [µM] | Compound | selectivity ratio HaCaT/HCT-116 ([1]; ratio of IC50 values) | IC50 [3] [µM] | selectivity ratio HaCaT/HeLa ([4]; ratio of IC50 values) |
| --- | --- | --- | --- | --- | --- | --- | --- | --- | --- |
| 7 to 11 | 11 ± 0.5 | 15 to 24 | 24 ± 1 | 11 to 18 | 11 ± 0.5 | Cc1cc(S(=O)(=O)N=c2[nH]c3ccccc3[nH]2)c(SCc2nc(N)nc(N3CCN(c4ccc(C(F)(F)F)cc4)CC3)n2)cc1Cl [Compound 22, 2-{[4-Amino-6-{4-[4-(trifluoromethyl)phenyl]piperazin-1-yl}-1,3,5-triazin-2-yl]methylthio}-N-(1H-benzo[d]imidazol-2(3H)-ylidene)-4-chloro-5-methylbenzenesulfonamide] | 3.1 | 34 ± 1 | 3.1 |
| 17 ± 0.5 | – | 20 ± 1 | – | 21 ± 0.4 | – | Cc1cc(S(=O)(=O)N=c2[nH]c3ccccc3[nH]2)c(SCc2nc(N)nc(N3CCN(c4ccc(F)c(Cl)c4)CC3)n2)cc1Cl [Compound 26, 2-[{4-Amino-6-[4-(3-chloro-4-fluorophenyl)piperazin-1-yl]-1,3,5-triazin-2-yl}methylthio]-N-(1H-benzo[d]imidazol-2(3H)-ylidene)-4-chloro-5-methylbenzenesulfonamide] | – | 35 ± 1 | – |
| 54 ± 2 | – | 41 ± 1 | – | 56 ± 2 | – | COc1ccc(Nc2nc(N)nc(CSc3cc(Cl)c(C)cc3S(=O)(=O)N=c3[nH]c4ccccc4[nH]3)n2)cc1 [Compound 14, 2-[{4-Amino-6-[(4-methoxyphenyl)amino]-1,3,5-triazin-2-yl}metylthio]-N-(1H-benzo[d]imidazol-2(3H)-ylidene)-4-chloro-5-methylbenzenesulfonamide] | – | 65 ± 3 | – |
| 17 ± 1 | – | 27 ± 2 | – | 20 ± 1 | – | Cc1cc(S(=O)(=O)N=c2[nH]c3ccc(F)cc3[nH]2)c(SCc2nc(N)nc(N3CCN(c4ccccc4)CC3)n2)cc1Cl [Compound 37, 2-[{[4-Amino-6-(4-phenylpiperazin-1-yl)-1,3,5-triazin-2-yl]methyl}thio]-4-chloro-N-(5-fluoro-1H-benzo[d]imidazol-2(3H)-ylidene)-5-methylbenzenesulfonamide] | – | 39 ± 1 | – |
| 32 ± 3 | – | 25 ± 1 | – | 30 ± 1 | – | Cc1cc(S(=O)(=O)N=c2[nH]c3ccccc3[nH]2)c(SCc2nc(N)nc(N3CCCc4ccccc43)n2)cc1Cl [Compound 10, 2-{[4-Amino-6-(3,4-dihydroquinolin-1(2H)-yl)-1,3,5-triazin-2-yl]methylthio}-N-(1H-benzo[d]imidazol-2(3H)-ylidene)-4-chloro-5-methylbenzenesulfonamide] | – | 45 ± 2 | – |
| 43 ± 1 | – | 44 ± 2 | – | 45 ± 2 | – | Cc1cc(S(=O)(=O)N=c2[nH]c3ccc(Cl)cc3[nH]2)c(SCc2nc(N)nc(Nc3ccc(F)cc3)n2)cc1Cl [Compound 43, 2-[{4-Amino-6-[(4-fluorophenyl)amino]-1,3,5-triazin-2-yl}methylthio]-4-chloro-N-(5-chloro-1H-benzo[d]imidazol-2(3H)-ylidene)-5-methylbenzenesulfonamide] | – | 55 ± 2 | – |
| 22 ± 1 | – | 27 ± 1 | – | > 100 | 92 ± 2 | Cc1cc(S(=O)(=O)N=c2[nH]c3ccccc3[nH]2)c(SCc2nc(N)nc(NCc3ccccc3)n2)cc1Cl [Compound 15, 2-{[4-Amino-6-(benzylamino)-1,3,5-triazin-2-yl]metylthio}-N-(1H-benzo[d]imidazol-2(3H)-ylidene)-4-chloro-5-methylbenzenesulfonamide] | – | – | – |
| 14 ± 1 | – | 24 ± 1 | – | 18 ± 1 | – | Cc1cc(S(=O)(=O)N=c2[nH]c3ccc(F)cc3[nH]2)c(SCc2nc(N)nc(N3CCN(c4ccc(F)cc4)CC3)n2)cc1Cl [Compound 38, 2-[{4-Amino-6-[4-(4-fluorophenyl)piperazin-1-yl]-1,3,5-triazin-2-yl}metylthio]-4-chloro-N-(5-fluoro-1H-benzo[d]imidazol-2(3H)-ylidene)-5-methylbenzenesulfonamide] | – | 38 ± 2 | – |
| > 100 | 195 ± 4 | > 100 | 134 ± 9 | > 100 | 56 ± 2 | Cc1cc(S(=O)(=O)N=c2[nH]c3ccccc3[nH]2)c(SCc2nc(N)nc(N3CCN(c4ccc([N+](=O)[O-])cc4)CC3)n2)cc1Cl [Compound 29, 2-[{4-Amino-6-[4-(4-nitrophenyl)piperazin-1-yl]-1,3,5-triazin-2-yl}metylthio]-N-(1H-benzo[d]imidazol-2(3H)-ylidene)-4-chloro-5-methylbenzenesulfonamide] | – | – | – |
